Columns and labels:
[1] = target: Mitogen-activated protein kinase 1 (Homo sapiens, UniProt P28482); assay: Inhibition of ERK2 (unknown origin) measured after 2 hr by ADP-glo assay
COLO 205 [2] = assay: Antiproliferative activity against human COLO 205 cells assessed as reduction in cell viability for 72 hrs by cell titre glo luminescence assay; type: functional, cell-based
[3] = Oral bioavailability in Sprague-Dawley rat at 2 mg/kg; type: ADME, organism-based; conditions: in vivo
[4] = Cmax in ICR mouse plasma at 1 mg/kg, iv and measured after 24 hrs by LC/MS/MS analysis; type: ADME, organism-based; design: route intravenous, dose 1 mg/kg, time 24 hrs
[5] = AUC (0 to t) in Sprague-Dawley rat at 2 mg/kg, po; type: ADME, organism-based; design: dose 2 mg/kg; conditions: in vivo
[6] = Oral bioavailability in ICR mouse at 2 mg/kg; type: ADME, organism-based; conditions: in vivo
[7] = AUC (0 to t) in ICR mouse at 2 mg/kg, po; type: ADME, organism-based; design: dose 2 mg/kg; conditions: in vivo
[8] = Cmax in Sprague-Dawley rat plasma at 1 mg/kg, iv and measured after 24 hrs by LC/MS/MS analysis; type: ADME, organism-based; design: route intravenous, dose 1 mg/kg, time 24 hrs
[9] = Clearance in Sprague-Dawley rat plasma at 1 mg/kg, iv and measured after 24 hrs by LC/MS/MS analysis; type: ADME, organism-based
[10] = Clearance in ICR mouse plasma at 1 mg/kg, iv and measured after 24 hrs by LC/MS/MS analysis mg/kg, iv; type: ADME, organism-based
[11] = Half life in ICR mouse at 2 mg/kg, po; conditions: in vivo
[12] = Half life in Sprague-Dawley rat at 2 mg/kg, po; conditions: in vivo
[13] = Cmax in tumor of BALB/c mouse xenografted with human COLO 205 cells at 50 mg/kg, po for 14 days; type: ADME, organism-based, Neoplasm; design: route oral, dose 50 mg/kg, time 14 day
[14] = AUC in plasma of BALB/c mouse xenografted with human COLO 205 cells at 50 mg/kg, po for 14 days; type: ADME, organism-based; design: time 14 day, dose 50 mg/kg
COLO 205 [15] = assay: Antitumor activity against human COLO 205 cells xenografted in BALB/c nude mouse assessed as TGI at 50 mg/kg, po measured after 14 days; type: functional; conditions: COLO 205, po, 336 h, time 14 day, read-out: TGI
[16] = Cmax in plasma of BALB/c mouse xenografted with human COLO 205 cells at 50 mg/kg, po for 14 days; type: ADME, organism-based; design: route oral, dose 50 mg/kg, time 14 day
[17] = AUC in tumor of BALB/c mouse xenografted with human COLO 205 cells at 50 mg/kg, po for 14 days; type: ADME, organism-based, Neoplasm; design: dose 50 mg/kg, time 14 day
[18] = Ratio of AUC in tumor to plasma of BALB/c mouse xenografted with human COLO 205 cells at 50 mg/kg, po for 14 days; type: ADME, organism-based; conditions: tumor and plasma, time 14 day, read-out: Ratio AUC
[19] = Homo sapiens, COLO 205, 72 h, read-out: IC50

Sequence of Mitogen-activated protein kinase 1 (P28482 whole entry): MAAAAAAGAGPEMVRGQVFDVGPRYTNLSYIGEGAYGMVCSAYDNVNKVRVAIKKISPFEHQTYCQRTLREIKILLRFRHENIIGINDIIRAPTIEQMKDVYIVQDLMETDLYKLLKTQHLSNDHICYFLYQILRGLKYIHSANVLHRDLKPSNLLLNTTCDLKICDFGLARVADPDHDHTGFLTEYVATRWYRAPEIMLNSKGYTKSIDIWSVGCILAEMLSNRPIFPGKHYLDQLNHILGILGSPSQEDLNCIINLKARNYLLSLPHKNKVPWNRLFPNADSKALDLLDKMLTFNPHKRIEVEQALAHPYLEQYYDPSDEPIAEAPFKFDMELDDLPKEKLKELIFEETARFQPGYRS

IC50 [1] [nM] | IC50 (COLO 205 [2]; [19]) [nM] | IC50 (COLO 205 [2]; colo 205) | SMILES | also measured
4.8 | 92.2 |  | Cc1cnc(Nc2ccnn2C)nc1-c1cc2n(c1)C(=O)N([C@H](CO)c1ccc(Cl)c(F)c1)C2 | 
18.3 |  | Not Active | Cc1cnc(Nc2ccnn2C)nc1-c1cc2n(c1)C(=O)N([C@H](CN)c1cccc(Cl)c1)C2 | 
188 |  | Not Active | Cc1cnc(NC(C)C)nc1-c1cc2n(c1)C(=O)N([C@H](CO)c1cccc(Cl)c1)C2 | 
 | 77.1 |  | Cc1cnc(Nc2ccnn2C)nc1-c1cc2n(c1)C(=O)N([C@H](CO)c1cccc(Cl)c1)CC2 | bioavailability [3]: 29.4%; Cmax [4]: 275 ng/mL; AUC(0-t) [5]: 258 ng·h/mL; bioavailability [6]: 54%; AUC(0-t) [7]: 277 ng·h/mL; Cmax [8]: 84.3 ng/mL; clearance [9]: 38.5 mL/min/kg; clearance [10]: 63.1 mL/min/kg; half-life [11]: 0.82 h; half-life [12]: 1.6 h
 |  | Not Active | Cc1cnc(Nc2ccnn2C)nc1-c1cc2n(c1)C(=O)N([C@H](C)c1cccc(Cl)c1)C2 | 
1.5 | 94.5 |  | CNC[C@H](c1cccc(Cl)c1)N1Cc2cc(-c3nc(Nc4ccnn4C)ncc3C)cn2C1=O | 
4200 |  | Not Active | Cn1nccc1Nc1nccc(-c2cn3c(n2)CN([C@H](CO)c2cccc(Cl)c2)C3=O)n1 | 
130 |  | Not Active | Cc1cnc(Nc2ccnn2C)nc1-c1cn2c(c1F)CN([C@H](CO)c1cccc(Cl)c1)C2=O | 
240 | > 10000 |  | Cn1nccc1Nc1nccc(N2CCN(C(CO)c3cccc(Cl)c3)C(=O)C2)n1 (racemic) | 
14.4 | 248 |  | Cc1cnc(Nc2ccnn2C)nc1N1Cc2cn(C(CO)c3cccc(Cl)c3)nc2C1 (racemic) | 
99 | 964 |  | Cc1cnc(Nc2ccnn2C)nc1N1Cc2nn(C(CO)c3cccc(Cl)c3)c(C)c2C1 (racemic) | 
 | 103 |  | CC(C)Nc1cc(-c2c[nH]c(C(=O)N[C@H](CO)c3cccc(Cl)c3)c2)c(Cl)cn1 [ULIXERTINIB] | Cmax [13]: 13000 ng/mL; AUC at 336 h [14]: 114000 ng·h/mL; inhibition in vivo at 50 mg/kg (COLO 205 [15]): 63%; Cmax [16]: 32300 ng/mL; AUC at 336 h [17]: 48800 ng·h/mL; Kp at 336 h [18]: 0.43

Source: ChEMBL document CHEMBL5046322, “Discovery of SHR2415, a Novel Pyrrole-Fused Urea Scaffold ERK1/2 Inhibitor” (ACS Med Chem Lett, 2022)
